Experimental data reported in patent US10149644B2, “Curcumin derivatives for amyloid-β plaque imaging” (The General Hospital Corporation, priority 2008, dated 2018).
Read-outs that look alike come from different tables or passages of the source. Values belong to the compound of their own block, whether it stands above or below them.

Tests used:
senile plaques = assay: Ex vivo histological correlation; assay type: in vivo, mice; details: 10 mg/kg i.v.
Method: 19 month-old mouse was injected CRANAD-2 (10.0 mg/kg), and was sacrified after perfusion with 4% formaldehyde. The brain was taken and embedded in OCT. For histology, the brain was sliced into 25μ slices, and co-stained with thioflavin S as described above. To obtain ex vivo confirmation of the probe binding, mice at different ages were i.v injected with 10 mg/kg of CRANAD-2 probe, perfused and scarified at 1 h after injection.

Aβ40 aggregates [1] = biological target: T1, Aβ40 aggregates (Homo sapiens, UniProt P05067); assay: In vitro Aβ aggregates binding constant measurement; details: Aβ40 aggregates in PBS, fluorescence intensity, nonlinear one-site regression; read-out: Binding constant (Kd) towards Aβ aggregates
T1 construct: Synthetic amyloid-b protein (1-40) was purchased from rPeptide; purchased rPeptide (Bogart, Ga.)
T1 sequence (P05067 672-711 limits assumed): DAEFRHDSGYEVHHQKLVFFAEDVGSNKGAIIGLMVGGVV
Method: […] The Kd binding curve was generated by software Prism 3.0 with nonlinear one-site binding regression.
Binding constant (Kd) of CRANAD-2 towards Aβ aggregates was measured by fluorescence intensity (F.I.) with various concentrations of the prob.

Aβ40 aggregates [2] = biological target: T1, Aβ40 aggregates; details: reported values used for comparison; read-out: Kd towards Aβ aggregates (literature); cited from earlier work
Aβ plaques = assay: AD tissue staining of APP-PS1 brain sections; details: 25 micron sections, 12-month old APP-PS1 mice
From the text: The inventors conducted tissue staining with 25 micron brain sections from 12-month old APP-PS1 mice by all the compounds listed in FIG. 12.

Aβ40 aggregates [3] = biological target: T1, Aβ40 aggregates; assay: Aβ aggregates detection in solution by fluorescence spectrum; assay type: binding; details: 250 nM compound, 250 nM Aβ40 aggregates, PBS
Method: They then incubated 250 nM of the compounds with 250 nM of Aβ40 aggregates (calculation based on monomer) in PBS for one minute, and then measured the fluorescence spectra of the solutions.

[4] = Fluorescence emission properties of the probes; assay type: physicochemical; details: probe alone, methanol (FIG. 2)
Method: Reagents used for synthesis were purchased from Aldrich without further purification. Column chromatography was performed on silica gel (SiliCycle Inc., 60 Å, […]) slurry packed into glass columns. Thioflavin S was purchased from Aldrich. Synthetic amyloid-b protein (1-40) was purchased from rPeptide (Bogart, Ga., 30622) and aggregates for in vitro studies were generated followed the reported procedure. BSA was purchased from Sigma, and human serum was obtained from Invitrogen (type AB). ^1H and ^13C NMR spectra were recorded at 400 MHz and 100 MHz respectively, and are reported in ppm downfield from tetramethylsilane. Fluorescence studies were carried out with F-4500 Fluorescense Spectrophotometer. Fluorescence quantum yields were determined using aqueous solution of Cy5.5-maleimide as a standard (y=0.23). High resolution mass spectra were obtained at the Harvard University, Department of Chemistry Instrumentation Facility. Transgenic Tg2576 mice {45} and littermates were purchased from Taconic Farm, Balb/c mice for BBB penetrating test were obtained from Jackson Laboratory, and the experiment procedure was approved by Massachusetts General Hospital. In vivo imaging was recorded on Kodak Imaging Station 2000MM.
Furthermore, by comparing the fluorescence intensity in methanol, the quantum yield of CRANAD-2 was significant higher than that of curcumin (FIG. 2). […] Additionally, these modifications produced a large stokes shift and improved quantum yield of CRANAD-2. The synthesized compound produced the longest emission and the largest stokes shift among the existing probes for senile plaque detection {3}.

[5] = cited from earlier work

Kd (Aβ40 aggregates [1]): 1 nM
Structure (SMILES): COc1cc(C=CC2=CC(C=Cc3ccc(O)c(OC)c3)=[O+][B-](F)(F)O2)ccc1O [CRANAD-1, 1,7-Bis-(4-hydroxy-3-methoxyphenyl)-hepta-1,6-diene-2′,2′-difluoro-1′,3′-dioxaboryl-3,5-dione]
Labelling of senile plaques ex vivo after i.v. injection (senile plaques; 11-month old transgenic and wild-type mice, thioflavin S staining): could not find obvious senile plaques
Labelling of senile plaques ex vivo after i.v. injection (senile plaques; 19-month old transgenic mice): can penetrate BBB and label senile plaques in vivo

Structure (SMILES): N#CC(C#N)=Cc1ccc(-c2ccc(-c3ccc(O)cc3)s2)s1 [NIAD-4]
Kd (Aβ40 aggregates [2]): 10 nM

Structure (SMILES): [11CH3]Nc1ccc(-c2nc3ccc(O)cc3s2)cc1 [PiB]
Staining of plaques in brain sections (Aβ plaques): stained the plaques brightly

FI amplification with Aβ40 aggregates (Aβ40 aggregates [3]): 72 fold
Fluorescence intensity change with Aβ40 aggregates (Aβ40 aggregates [3]; one minute): intensity increases
Structure (SMILES): Cc1ccc2c(c1)sc(-c1ccc(N(C)C)cc1)[n+]2C.[Cl-] [Thioflavin T]
Staining of plaques in brain sections (Aβ plaques): stained the plaques brightly

Fluorescence intensity change with Aβ40 aggregates (Aβ40 aggregates [3]; one minute): intensity increases
Wavelength shift with Aβ40 aggregates (Aβ40 aggregates [3]; one minute): wavelength blue-shifts
Stokes shift [4]: 50 nm
λmax(em) [4]: 560 nm
λmax(ex) [4]: 510 nm
Structure (SMILES): COc1cc(C=CC(=O)CC(=O)C=Cc2ccc(O)c(OC)c2)ccc1O [curcumin, 1,7-bis(4-hydroxy-3-methoxyphenyl)-1,6-heptadiene-3,5-dione]
Staining of plaques in brain sections (Aβ plaques): stained the plaques brightly
log P (literature) [5]: < 2
